Assay results published in patent US7138361B2, “Herbicidal heterocycles” (E. I. du Pont de Nemours and Company, priority 2000, dated 2006).

How the values were obtained:
Type in all cases: in vivo
[1] = tested on: morning glory (Ipomoea hederacea); assay: Test B postemergence; settings: Rate 125 g/ha, scale 0 to 100, 0 no effect, 100 complete control
Procedure, shortened: (§1)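 Pre: seeded pots sprayed, chemical in non-phytotoxic solvent/surfactant mix. Post: plants 2–18 cm, 1–4 leaf, same formulation. Greenhouse 13–15 d; visual % control vs untreated, 0–100 scale.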

[2] = tested on: giant foxtail (Setaria faberii); assay: Test B postemergence; settings: Rate 125 g/ha, scale 0 to 100, 0 no effect, 100 complete control
Procedure, shortened: as §1

[3] = tested on: velvetleaf (Abutilon theophrasti); assay: Test B postemergence; settings: Rate 125 g/ha, scale 0 to 100, 0 no effect, 100 complete control
Procedure, shortened: as §1

corn (Zea mays) [4] = assay: Test B postemergence
Procedure, shortened: as §1

[5] = tested on: cocklebur (Xanthium strumarium); assay: Test B postemergence
Procedure, shortened: as §1

[6] = tested on: barnyardgrass (Echinochloa crus-galli); assay: Test B postemergence
Procedure, shortened: as §1

wild oat (Avena fatua) = assay: Test B postemergence; settings: Rate 125 g/ha, scale 0 to 100, 0 no effect, 100 complete control
Procedure, shortened: as §1

[7] = tested on: crabgrass (Digitaria sanguinalis); assay: Test B postemergence; settings: Rate 125 g/ha, scale 0 to 100, 0 no effect, 100 complete control
Procedure, shortened: as §1

[8] = tested on: Surinam grass (Brachiaria decumbens); assay: Test B postemergence
Procedure, shortened: as §1

[9] = tested on: pigweed (Amaranthus retroflexus); assay: Test B postemergence; settings: Rate 125 g/ha, scale 0 to 100, 0 no effect, 100 complete control
Procedure, shortened: as §1

[10] = tested on: wheat (Triticum aestivum); assay: Test B postemergence; settings: Rate 125 g/ha, scale 0 to 100, 0 no effect, 100 complete control
Procedure, shortened: as §1

Sunflower [11] = assay: Test C preemergence; settings: Rate 500 g/ha, visual evaluation after 12 to 14 days
Nightshade = assay: Test C preemergence
[12] = tested on: johnsongrass (Sorghum halepense); assay: Test C preemergence; settings: for Plant response rating (0 to 100), Johnsongrass: Rate 500 g/ha, visual evaluation after 12 to 14 days
Procedure, shortened: (§2)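 Response scores (0 no effect to 100 complete control) came from visual comparison with untreated controls 12 to 14 days after treatment. Preemergence application was made to seeded soil; postemergence, to plants at the 1- to 4-leaf stage.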

[13] = tested on: velvetleaf (Abutilon theophrasti); assay: Test C preemergence; settings: for Plant response rating (0 to 100), Velvetleaf: Rate 500 g/ha, visual evaluation after 12 to 14 days
Procedure, shortened: as §2

[14] = tested on: goosegrass (Eleusine indica); assay: Test C preemergence; settings: for Plant response rating (0 to 100), Goosegrass: Rate 500 g/ha, visual evaluation after 12 to 14 days
Procedure, shortened: as §2

corn (Zea mays) [15] = assay: Test C preemergence; settings: for Plant response rating (0 to 100), Corn: Rate 500 g/ha, visual evaluation after 12 to 14 days
Procedure, shortened: as §2

[16] = tested on: common ragweed (Ambrosia elatior); assay: Test C preemergence; settings: for Plant response rating (0 to 100), Ragweed, Common: Rate 500 g/ha, visual evaluation after 12 to 14 days
Procedure, shortened: as §2

[17] = tested on: lambsquarters (Chenopodium album); assay: Test C preemergence; settings: for Plant response rating (0 to 100), Lambsquarters: Rate 500 g/ha, visual evaluation after 12 to 14 days
Procedure, shortened: as §2

[18] = tested on: yellow nutsedge (Cyperus esculentus); assay: Test C preemergence; settings: for Plant response rating (0 to 100), Nutsedge: Rate 500 g/ha, visual evaluation after 12 to 14 days
Procedure, shortened: as §2

Sunflower [19] = assay: Test C preemergence; settings: Rate 125 g/ha; scale 0 to 100, 0 no effect, 100 complete control
[20] = tested on: morningglory (Ipomoea hederacea); assay: Test C preemergence; settings: for Plant response rating (0 to 100), Morningglory: Rate 500 g/ha, visual evaluation after 12 to 14 days
Procedure, shortened: as §2

[21] = Rate 125 g/ha, scale 0 to 100, 0 no effect, 100 complete control
[22] = Rate 500 g/ha, scale 0 to 100, 0 is no effect, 100 is complete control, 13 to 15 days
[23] = Rate 250 g/ha, scale 0 to 100, 0 no effect, 100 complete control
[24] = preemergence, Rate 62 g/ha, scale 0 to 100
[25] = preemergence, Rate 250 g/ha, scale 0 to 100, 0 no effect, 100 complete control

CCC(C)Oc1cccc(N2CCC(n3ccc(C(C)(C)C)n3)C2=O)c1 (centres unmarked) [Compound 127]
20: Plant response rating, Lambsquarters [17, 24] | Plant response rating (0 to 100), Morningglory ([20]; preemergence)
30: Plant response rating (0 to 100), Velvetleaf ([13]; preemergence) | Plant response rating, Goosegrass [14, 21] | Plant response rating (0 to 100), Corn (corn (Zea mays) [15]; preemergence) | Plant response rating, Corn (corn (Zea mays) [15]; [25])
80: Plant response rating, Lambsquarters [17, 21]
60: Plant response rating, Cocklebur [5, 22]
10: Plant response rating, Velvetleaf [13, 25] | Plant response rating, Goosegrass [14, 24] | Plant response rating (0 to 100), Ragweed, Common ([16]; preemergence) | Plant response rating, Ragweed, Common [16, 25]
0: Plant response rating, Morningglory [1] | Plant response rating, Foxtail, Giant [2] | Plant response rating, Velvetleaf [3] | Plant response rating, Corn (corn (Zea mays) [4]; [21]) | Plant response rating, Corn (corn (Zea mays) [4]; [22]) | Plant response rating, Cocklebur [5, 21] | Plant response rating, Barnyardgrass [6, 21] | Plant response rating, Barnyardgrass [6, 22] | Plant response rating, Wild Oat (wild oat (Avena fatua)) | Plant response rating, Crabgrass [7] | Plant response rating, Surinam grass [8, 21] | Plant response rating, Surinam grass [8, 22] | Plant response rating, Pigweed [9] | Plant response rating, Wheat [10] | Plant response rating (0 to 100), Sunflower (Sunflower [11]) | Plant response rating, Nightshade (Nightshade; Rate 62 g/ha, scale 0 to 100) | Plant response rating, Nightshade (Nightshade; [21]) | Plant response rating, Nightshade (Nightshade; [23]) | Plant response rating, Johnsongrass [12, 21] | Plant response rating, Johnsongrass [12, 24] | Plant response rating (0 to 100), Johnsongrass ([12]; preemergence) | Plant response rating, Johnsongrass [12, 25] | Plant response rating, Velvetleaf [13, 21] | Plant response rating, Velvetleaf [13, 24] | Plant response rating, Corn (corn (Zea mays) [15]; [21]) | Plant response rating, Corn (corn (Zea mays) [15]; [24]) | Plant response rating, Ragweed, Common [16, 21] | Plant response rating, Ragweed, Common [16, 24] | Plant response rating, Nutsedge [18, 21] | Plant response rating, Nutsedge [18, 24] | Plant response rating (0 to 100), Nutsedge ([18]; preemergence) | Plant response rating, Nutsedge [18, 25] | Plant response rating, Sunflower (Sunflower [19]) | Plant response rating, Morningglory [20, 21] | Plant response rating, Morningglory [20, 24] | Plant response rating, Morningglory [20, 25]
100: Plant response rating (0 to 100), Goosegrass ([14]; preemergence) | Plant response rating, Goosegrass [14, 25] | Plant response rating (0 to 100), Lambsquarters ([17]; preemergence) | Plant response rating, Lambsquarters [17, 25]

CCOc1cccc(N2CCC(n3ccc(C(C)C)n3)C2=O)c1 (centres unmarked) [Compound 128]
30: Plant response rating, Velvetleaf [13, 25] | Plant response rating, Morningglory [20, 24]
70: Plant response rating, Surinam grass [8, 21] | Plant response rating, Nutsedge [18, 21] | Plant response rating, Morningglory [20, 25]
10: Plant response rating, Velvetleaf [13, 24]
40: Plant response rating, Nightshade (Nightshade; [21]) | Plant response rating, Corn (corn (Zea mays) [15]; [25])
0: Plant response rating, Morningglory [1] | Plant response rating, Foxtail, Giant [2] | Plant response rating, Velvetleaf [3] | Plant response rating, Corn (corn (Zea mays) [4]; [21]) | Plant response rating, Corn (corn (Zea mays) [4]; [22]) | Plant response rating, Cocklebur [5, 21] | Plant response rating, Barnyardgrass [6, 21] | Plant response rating, Wild Oat (wild oat (Avena fatua)) | Plant response rating, Crabgrass [7] | Plant response rating, Pigweed [9] | Plant response rating, Wheat [10] | Plant response rating, Corn (corn (Zea mays) [15]; [24])
80: Plant response rating, Barnyardgrass [6, 22] | Plant response rating (0 to 100), Morningglory ([20]; preemergence)
50: Plant response rating, Cocklebur [5, 22] | Plant response rating (0 to 100), Velvetleaf ([13]; preemergence)
60: Plant response rating, Johnsongrass [12, 24] | Plant response rating (0 to 100), Corn (corn (Zea mays) [15]; preemergence) | Plant response rating, Morningglory [20, 21]
90: Plant response rating, Nightshade (Nightshade; [23]) | Plant response rating, Johnsongrass [12, 21]
100: Plant response rating, Surinam grass [8, 22] | Plant response rating (0 to 100), Sunflower (Sunflower [11]) | Plant response rating (0 to 100), Johnsongrass ([12]; preemergence) | Plant response rating, Johnsongrass [12, 25] | Plant response rating, Goosegrass [14, 21] | Plant response rating, Goosegrass [14, 24] | Plant response rating (0 to 100), Goosegrass ([14]; preemergence) | Plant response rating, Goosegrass [14, 25] | Plant response rating, Ragweed, Common [16, 21] | Plant response rating, Ragweed, Common [16, 24] | Plant response rating (0 to 100), Ragweed, Common ([16]; preemergence) | Plant response rating, Ragweed, Common [16, 25] | Plant response rating, Lambsquarters [17, 21] | Plant response rating, Lambsquarters [17, 24] | Plant response rating (0 to 100), Lambsquarters ([17]; preemergence) | Plant response rating, Lambsquarters [17, 25] | Plant response rating (0 to 100), Nutsedge ([18]; preemergence) | Plant response rating, Nutsedge [18, 25] | Plant response rating, Sunflower (Sunflower [19])
20: Plant response rating, Nightshade (Nightshade; Rate 62 g/ha, scale 0 to 100) | Plant response rating, Velvetleaf [13, 21] | Plant response rating, Corn (corn (Zea mays) [15]; [21]) | Plant response rating, Nutsedge [18, 24]
